System: Hek293 stable cell lines
Experiment: Cell proliferation assay (Resazurin based) of Hek293 stable cell lines
Design: species or system human
Conditions: overexpressing stable lines grown 7 days, six independent studies
Experimental: Hek293 stable cell lines, over-expressing mTORβ wt, mTORα wt or EGFP were seeded into a 96 well plate at various densities (250, 500, 1000 and 2000 cells per well) and grown under standard conditions for 7 days. Cell numbers were than measured in each well by a Resosurin based assay. Normalized growth curves for each cell line were calculated using data from six independent experiments (A). Western blot analysis of total cell lysates of stable cell lines with antibodies to c-myc and its transcription targets (B). The level of proteins was densitometrically measured, actin normalized and folds were calculated against EGFP expressing stable cell line (C).
HEK293 stable cell lines, overexpressing mTORβ wt, mTORβ kinase-dead or EGFP were seeded into 96 well plate at various densities (1000, 2000, 4000 and 8000 cells per well) and grown under standard conditions for 5 days. Cell numbers were then measured in each well by Resazurin based assay. Normalized growth curves for each cell line were calculated using data from six independent experiments (A). Western blot analysis of total cell lysates of stable cell lines with antibodies to c-myc and its transcription targets. The level of proteins was densitometrically measured, actin normalized and folds were calculated against EGFP expressing stable cell line (B). […]

Question: “mTORα wt: full-length mammalian target for rapamycin protein, approximately 2549 amino acids (SEQ ID NO: 4)” was tested. Which “proliferation compared to control (EGFP) cells” value did it give?
Answer: Its value is “no difference in proliferation”.

— patent publication US8669347B2, “Truncated variant of the mammalian target for rapamycin (MTOR) protein” (UCL Business PLC, priority 2007, dated 2014)
